Test results reported in ChEMBL document CHEMBL2016543, “New tacrine-4-oxo-4H-chromene hybrids as multifunctional agents for the treatment of Alzheimer's disease, with cholinergic, antioxidant, and β-amyloid-reducing properties” (J Med Chem, 2012).
Activity calls are given as the source filed them. The rule behind the calls is not given here. Starred links: 1 amine or outer side, 2 acyl side, 3 side chain; linkers in the order of their positions; H or OH if unused. Non-standard residues stand in square brackets, D forms with d. Residues, ends and D or L forms follow the SMILES beside them. LeuΨ(S-CHOHCH2)Ala = CC(C)C[C@H](N[*:1])[C@@H](O)C[C@@H](C)C(=O)[*:2]

What was measured:
[1] = target: T1, Beta-secretase 1 (Homo sapiens, UniProt P56817); assay: Competitive inhibition of human recombinant […] using panvera peptide as substrate preincubated for 60 mins before substrate addition by FRET assay
T1 sequence (P56817 whole entry): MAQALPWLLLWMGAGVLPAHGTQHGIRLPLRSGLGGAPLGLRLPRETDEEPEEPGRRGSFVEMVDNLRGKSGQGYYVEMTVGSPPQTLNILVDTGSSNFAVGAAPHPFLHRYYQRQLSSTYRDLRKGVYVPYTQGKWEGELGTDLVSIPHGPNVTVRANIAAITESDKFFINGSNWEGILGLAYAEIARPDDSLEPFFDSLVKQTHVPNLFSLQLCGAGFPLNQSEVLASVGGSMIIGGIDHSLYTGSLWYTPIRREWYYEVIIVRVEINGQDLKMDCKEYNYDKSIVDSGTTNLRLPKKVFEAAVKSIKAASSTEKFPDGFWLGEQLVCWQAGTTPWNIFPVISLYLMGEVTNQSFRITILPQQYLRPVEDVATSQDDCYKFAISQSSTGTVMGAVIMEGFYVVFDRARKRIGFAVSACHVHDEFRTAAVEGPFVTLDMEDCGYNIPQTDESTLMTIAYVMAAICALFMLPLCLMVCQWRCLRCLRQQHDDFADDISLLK

[2] = target: T2, Acetylcholinesterase (Bos taurus, UniProt P23795)
T2 sequence (P23795 whole entry): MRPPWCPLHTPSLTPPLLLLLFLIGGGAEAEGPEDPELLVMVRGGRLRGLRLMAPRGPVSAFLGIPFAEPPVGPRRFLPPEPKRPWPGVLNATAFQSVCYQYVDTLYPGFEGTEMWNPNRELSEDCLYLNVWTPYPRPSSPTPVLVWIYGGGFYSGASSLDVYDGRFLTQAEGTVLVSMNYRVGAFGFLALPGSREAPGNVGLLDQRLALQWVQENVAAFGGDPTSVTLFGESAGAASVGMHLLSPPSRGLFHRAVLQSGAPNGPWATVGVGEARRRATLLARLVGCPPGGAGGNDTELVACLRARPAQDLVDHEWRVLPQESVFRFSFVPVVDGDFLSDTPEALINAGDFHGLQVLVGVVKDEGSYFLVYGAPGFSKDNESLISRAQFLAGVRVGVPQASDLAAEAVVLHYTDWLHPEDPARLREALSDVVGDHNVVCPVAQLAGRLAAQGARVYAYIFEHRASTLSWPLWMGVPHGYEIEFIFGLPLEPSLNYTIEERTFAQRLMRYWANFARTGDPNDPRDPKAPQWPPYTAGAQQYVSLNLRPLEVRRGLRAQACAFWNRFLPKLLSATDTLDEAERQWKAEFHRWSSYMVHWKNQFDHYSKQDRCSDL
Description: (§1) Inhibition of bovine erythrocytes AChE by Ellman's method

[3] = target: Cholinesterase (Equus caballus, UniProt P81908)
Sequence of Cholinesterase (Equus caballus, UniProt P81908) (P81908 whole entry): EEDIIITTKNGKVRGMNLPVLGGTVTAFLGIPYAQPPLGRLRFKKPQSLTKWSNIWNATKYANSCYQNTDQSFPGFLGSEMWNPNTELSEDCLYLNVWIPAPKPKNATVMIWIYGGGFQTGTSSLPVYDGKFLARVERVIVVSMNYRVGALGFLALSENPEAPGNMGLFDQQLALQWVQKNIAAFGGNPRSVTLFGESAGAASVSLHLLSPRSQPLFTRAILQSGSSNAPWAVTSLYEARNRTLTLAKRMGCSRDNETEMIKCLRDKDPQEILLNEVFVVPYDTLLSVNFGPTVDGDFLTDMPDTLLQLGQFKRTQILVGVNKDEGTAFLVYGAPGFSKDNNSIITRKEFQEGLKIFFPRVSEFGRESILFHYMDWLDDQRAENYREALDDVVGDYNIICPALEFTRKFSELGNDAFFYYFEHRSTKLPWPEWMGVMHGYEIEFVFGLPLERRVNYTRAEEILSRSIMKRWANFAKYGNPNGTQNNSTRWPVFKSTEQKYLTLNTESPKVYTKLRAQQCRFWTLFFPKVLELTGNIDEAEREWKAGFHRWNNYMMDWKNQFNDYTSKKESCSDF
Description: (§2) Inhibition of horse serum BChE by Ellman's method

[4] = target: Acetylcholinesterase (Homo sapiens, UniProt P22303)
Sequence of Acetylcholinesterase (Homo sapiens, UniProt P22303) (P22303 whole entry): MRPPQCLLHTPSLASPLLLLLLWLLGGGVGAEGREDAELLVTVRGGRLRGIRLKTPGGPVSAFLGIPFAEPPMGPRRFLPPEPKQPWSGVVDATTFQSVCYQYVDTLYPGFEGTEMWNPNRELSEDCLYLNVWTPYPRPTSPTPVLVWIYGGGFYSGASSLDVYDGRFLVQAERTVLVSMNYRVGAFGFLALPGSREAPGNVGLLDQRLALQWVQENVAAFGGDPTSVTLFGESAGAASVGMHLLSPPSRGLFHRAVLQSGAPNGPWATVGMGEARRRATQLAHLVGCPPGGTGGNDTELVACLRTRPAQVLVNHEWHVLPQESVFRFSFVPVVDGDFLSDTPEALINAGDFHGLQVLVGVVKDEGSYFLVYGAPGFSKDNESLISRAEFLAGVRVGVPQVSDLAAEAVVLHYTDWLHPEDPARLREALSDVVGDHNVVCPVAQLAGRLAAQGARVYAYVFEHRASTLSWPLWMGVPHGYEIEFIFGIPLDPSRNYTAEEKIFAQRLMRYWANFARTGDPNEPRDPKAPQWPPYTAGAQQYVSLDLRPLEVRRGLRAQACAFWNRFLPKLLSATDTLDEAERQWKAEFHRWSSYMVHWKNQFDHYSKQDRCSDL
Description: Inhibition of human erythrocytes AChE by Ellman's method

[5] = target: T3, Cholinesterase (Homo sapiens, UniProt P06276)
T3 sequence (P06276 whole entry): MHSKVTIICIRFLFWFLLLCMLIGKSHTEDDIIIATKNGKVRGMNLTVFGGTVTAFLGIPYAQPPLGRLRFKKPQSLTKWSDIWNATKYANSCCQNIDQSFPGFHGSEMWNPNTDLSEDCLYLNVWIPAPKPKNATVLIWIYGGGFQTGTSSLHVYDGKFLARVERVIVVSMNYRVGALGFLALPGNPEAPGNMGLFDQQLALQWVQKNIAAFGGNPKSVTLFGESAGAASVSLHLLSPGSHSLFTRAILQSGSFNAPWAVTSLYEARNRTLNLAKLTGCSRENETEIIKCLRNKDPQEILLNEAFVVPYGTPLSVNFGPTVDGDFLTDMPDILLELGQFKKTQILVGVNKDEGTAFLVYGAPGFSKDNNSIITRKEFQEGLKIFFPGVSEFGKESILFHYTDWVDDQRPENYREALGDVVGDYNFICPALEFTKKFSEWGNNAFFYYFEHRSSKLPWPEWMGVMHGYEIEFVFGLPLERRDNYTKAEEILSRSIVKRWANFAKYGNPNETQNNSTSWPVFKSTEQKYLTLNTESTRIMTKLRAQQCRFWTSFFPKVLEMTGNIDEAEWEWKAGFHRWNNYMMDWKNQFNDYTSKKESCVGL
Description: Inhibition of human serum BChE by Ellman's method

[6] = target: T1, Beta-secretase 1
Description: Inhibition of human recombinant BChE using panvera peptide as substrate preincubated for 60 mins before substrate addition by FRET assay

[7] = in vitro; conditions: PAMPA, pH 7.4
Description: Permeability of the compound in phosphate buffer at pH 7.4 by PAMPA

[8] = target: T3, Cholinesterase; assay: Ratio of tacrine IC50 to compound IC50 for human serum BChE
[9] = target: Cholinesterase (Equus caballus) (UniProt P81908)
Sequence of Cholinesterase (Equus caballus) (P81908 whole entry): as the sequence (P81908 whole entry) above
Description: as §2

[10] = target: T4, Acetylcholinesterase (Bos taurus) (UniProt P23795)
T4 sequence (whole entry): T2 sequence (P23795 whole entry)
Description: as §1

SMILES | Kic [1] [µM] | IC50 [2] [nM] | IC50 [3] [nM] | IC50 [4] [nM] | IC50 [5] [nM] | IC50 [6] [nM] | Papp [7] [×10⁻⁶ cm/s] | Ratio IC50 [8] | inhibition [9] | inhibition [10]
Cl.O=C(NCCCCCCCCCCNc1c2c(nc3ccccc13)CCCC2)c1cc(=O)c2cc(O)ccc2o1 | 0.82 | 75 | 1 | 8 | 1.5 | 2800 | 23.1 |  |  | 
Cl.O=C(NCCCCCCCCCCNc1c2c(nc3ccccc13)CCCC2)c1cc(=O)c2cc(O)c(O)cc2o1 |  | 300 | 8 | 6.5 | 30 |  | 6.3 |  |  | 
COc1cc(OC)c2c(=O)cc(C(=O)NCCCCCCCCCCNc3c4c(nc5ccccc35)CCCC4)oc2c1.Cl | 0.62 | 100 | 0.325 | 2.3 | 0.1 | 2100 | 14.7 |  |  | 
Cl.O=C(NCCCCCCCCCCNc1c2c(nc3ccccc13)CCCC2)c1cc(=O)c2c(O)cc(O)cc2o1 | 1.06 | 500 | 0.35 | 2.3 | 0.8 | 3600 | 13.1 |  |  | 
O=C(NCCCCCCCCCCNc1c2c(nc3cc(Cl)cc(Cl)c13)CCCC2)c1cc(=O)c2cc(O)ccc2o1 |  | 350 | 17.5 |  |  |  |  |  |  | 
CC(C)C[C@H](NC(=O)[C@H](CC(N)=O)NC(=O)[C@@H](NC(=O)[C@@H](N)CC(=O)O)C(C)C)[C@@H](O)C[C@@H](C)C(=O)N[C@@H](C)C(=O)N[C@@H](CC(=O)O)C(=O)N[C@@H](Cc1ccccc1)C(=O)O (H-DVN[LeuΨ(S-CHOHCH2)Ala]ADF-OH) | 0.0097 |  |  |  |  | 33 |  |  |  | 
COc1cc2oc(C(=O)NCCCCCCCCCCNc3c4c(nc5ccccc35)CCCC4)cc(=O)c2cc1OC.Cl | 0.88 | 85 | 0.55 | 1.8 | 15 | 3000 | 15 |  |  | 
COc1ccc2oc(C(=O)NCCCCCCCCCCNc3c4c(nc5cc(Cl)ccc35)CCCC4)cc(=O)c2c1.Cl | 4.23 | 5 | 0.425 | 0.1 | 0.1 | 14400 | 7.5 |  |  | 
O=C(NCCCCCCCCCCNc1c2c(nc3cc(Cl)cc(Cl)c13)CCCC2)c1cc(=O)c2c(O)cc(O)cc2o1 |  | 75 | 35 |  |  |  |  |  |  | 
O=C(NCCCCCCCCCCCCNc1c2c(nc3ccccc13)CCCC2)c1cc(=O)c2ccccc2o1 |  | 150 | 0.25 |  |  |  |  |  |  | 
O=C(NCCCCCCCCCCNc1c2c(nc3cc(Cl)cc(Cl)c13)CCCC2)c1cc(=O)c2cc(O)c(O)cc2o1 |  | 90 | 88 |  |  |  |  |  |  | 
COc1cc(O)c2c(=O)cc(C(=O)NCCCCCCCCCCNc3c4c(nc5cc(Cl)cc(Cl)c35)CCCC4)oc2c1 |  | 80 | 35 |  |  |  |  |  |  | 
COc1cc2oc(C(=O)NCCCCCCCCCCNc3c4c(nc5cc(Cl)ccc35)CCCC4)cc(=O)c2cc1OC.Cl |  | 6.5 | 0.85 | 0.2 | 50 |  | 7.4 |  |  | 
Cl.O=C(NCCCCCCCCCCNc1c2c(nc3cc(Cl)ccc13)CCCC2)c1cc(=O)c2ccccc2o1 | 6.58 | 5 | 0.18 | 0.3 | 0.08 | 22400 | 7.1 |  |  | 
COc1ccc2oc(C(=O)NCCCCCCCCCCNc3c4c(nc5ccccc35)CCCC4)cc(=O)c2c1.Cl |  | 35 | 0.324 | 0.775 | 0.038 |  | 14.9 | 1050 |  | 
Cl.O=C(NCCCCCCCCCCNc1c2c(nc3cc(Cl)ccc13)CCCC2)c1cc(=O)c2cc(O)ccc2o1 |  | 80 | 3.5 | 1 | 1.5 |  | 11.5 |  |  | 

SMILES | Kic [1] [µM] | IC50 [2] [nM] | IC50 [3] [nM] | IC50 [4] [nM] | IC50 [5] [nM] | IC50 [6] [nM] | Papp [7] [×10⁻⁶ cm/s] | Ratio IC50 [8] | inhibition [9] | inhibition [10]
O=C(O)c1cc(=O)c2ccccc2o1 |  |  |  |  |  |  |  |  | inactive | inactive
O=C(NCCCCCCCCNc1c2c(nc3ccccc13)CCCC2)c1cc(=O)c2ccccc2o1 |  | 150 | 0.5 |  |  |  |  |  |  | 
O=C(NCCCCCCCCCNc1c2c(nc3ccccc13)CCCC2)c1cc(=O)c2ccccc2o1 |  | 125 | 0.58 |  |  |  |  |  |  | 
Cl.O=C(NCCCCCCCCCCNc1c2c(nc3cc(Cl)ccc13)CCCC2)c1cc(=O)c2c(O)cc(O)cc2o1 |  | 10 | 3 | 0.065 | 2.5 |  | 7.8 |  |  | 
COc1cc(OC)c2c(=O)cc(C(=O)NCCCCCCCCCCNc3c4c(nc5cc(Cl)ccc35)CCCC4)oc2c1.Cl |  | 50 | 1 | 0.35 | 0.1 |  | 10.7 |  |  | 
COc1cc(O)c2c(=O)cc(C(=O)NCCCCCCCCCCNc3c4c(nc5cc(Cl)ccc35)CCCC4)oc2c1.Cl |  | 38 | 0.175 | 0.035 | 5 |  | 8.7 |  |  | 
O=c1cc(-c2ccc(O)cc2)oc2cc(O)cc(O)c12 [APIGENIN] | 11.3 |  |  |  |  | 38500 |  |  |  | 
O=C(NCCCCCCCNc1c2c(nc3ccccc13)CCCC2)c1cc(=O)c2ccccc2o1 |  | 100 | 1.75 |  |  |  |  |  |  | 
COc1cc2oc(C(=O)NCCCCCCCCCCNc3c4c(nc5cc(Cl)cc(Cl)c35)CCCC4)cc(=O)c2cc1OC |  | 175 | 100 |  |  |  |  |  |  | 
Cl.O=C(NCCCCCCCCCCNc1c2c(nc3ccccc13)CCCC2)c1cc(=O)c2ccccc2o1 |  | 75 | 0.18 | 17.5 | 0.15 |  | 9.1 |  |  | 
COc1cc(OC)c2c(=O)cc(C(=O)NCCCCCCCCCCNc3c4c(nc5cc(Cl)cc(Cl)c35)CCCC4)oc2c1 |  | 150 | 0.75 |  |  |  |  |  |  | 
O=C(NCCCCCCCCCCNc1c2c(nc3cc(Cl)cc(Cl)c13)CCCC2)c1cc(=O)c2ccccc2o1 |  | 1000 | 100 |  |  |  |  |  |  | 
COc1ccc2oc(C(=O)NCCCCCCCCCCNc3c4c(nc5cc(Cl)cc(Cl)c35)CCCC4)cc(=O)c2c1 |  | 550 | 7.5 |  |  |  |  |  |  | 
Cl.O=C(NCCCCCCCCCCNc1c2c(nc3cc(Cl)ccc13)CCCC2)c1cc(=O)c2cc(O)c(O)cc2o1 | 3.99 | 17.5 | 28 | 0.09 | 95 | 13600 | 5.3 |  |  | 
COc1cc(O)c2c(=O)cc(C(=O)NCCCCCCCCCCNc3c4c(nc5ccccc35)CCCC4)oc2c1.Cl | 0.85 | 250 | 2 | 1 | 1 | 2900 | 10.6 |  |  | 
